The values below come from paper PMC8283790, “Inhibitory Effect of Puroindoline Peptides on Campylobacter jejuni Growth and Biofilm Formation” (Frontiers in Microbiology, 2021).

Where a SMILES comes first, the peptide text is derived from it.

In data set [1] the test system is INT 407 cells. The data set can be described thus: Lactate dehydrogenase (LDH) cytotoxicity assay. It is filed as cell-based, human. As to conditions: INT 407 cells, any time point (3, 6, 24 h). The procedure:
(§1) The toxicity of the puroindoline peptides was assessed using INT 407 epithelial cells (ATCC CCL-6) and SRBCs, as described below. The INT 407 cells (a derivative of HeLa cells) were cultured in Minimal Essential Medium (MEM) (Gibco, Grand Island, NY, United States) supplemented with 10% fetal bovine serum (FBS) and 1 mM sodium pyruvate at 37°C in humidified condition (5% CO2).
The cytotoxicity of puroindoline peptides on INT 407 cells was monitored using the lactate dehydrogenase (LDH) activity assay kit (Millipore Sigma, Danvers, MA, United States) following the manufacturer’s guidelines. LDH is released from damaged cells into the medium. Briefly, INT 407 cells were seeded into a 96 well plate at a density of 2.5 × 10^4 cells/well in 200 μL growth media (MEM supplemented by 10% FBS) and incubated for 24 h at 37°C in humidified (5% CO2) conditions. The next day, cells were rinsed twice with MEM without FBS, and different concentrations of peptides were added. Cells were incubated for 3 h, 6 h or 24 h at 37°C. As a positive control, 0.1% Triton X-100 was used. Media only was used as a negative control. In the presence of Triton X-100, cells release maximum LDH. After the appropriate incubation point, the tissue culture plate was centrifuged at 2000 rpm for 5 min. […] Absorbance was recorded at 450 nm (OD450) on a BioTek 96-well plate reader.

Data set [2] is described as follows: Solubility of the synthetic peptides. The settings on record: DMSO and water. It is filed as physicochemical.
The test system of data set [3] is INT 407 cells. The data set can be described thus: MTT cell viability assay. It is filed as cell-based, human. As to conditions: INT 407 cells, 24 h. The procedure:
as §1
The viability of INT 407 cells was assessed by MTT assay according to the manufacturer’s recommendations (Roche Diagnostics, Mannheim, Germany). Briefly, INT 407 cells were seeded into a 96-well plate at a density of 2.5 × 10^4 cells/well in 200 μL of growth media (MEM supplemented by 10% FBS) and incubated for 24 h at 37°C under humidified conditions. Cells were rinsed twice with MEM without FBS, and different concentrations of peptides were added into the well. Triton X-100 was added as a positive control and growth medium only was added as a negative control. After treatment, the cells were incubated for different time points (3, 6, or 24 h) at 37°C in a humidified condition. At the end of each experiment, 100 μL of culture medium was removed into a new 96-well plate, and 25 μL of MTT stock solution was added into each well. The plates were incubated for 4 h at 37°C. Then, 100 μL of the solubilizing solution was added to each well, and the plate was incubated overnight at 37°C. After cooling, the plates were read at 570 nm (OD570) on a BioTek 96-well plate reader.
Background: Formazan colour is commonly taken as a measure of viable cells.

The test system of the next data set is red blood cells. As to conditions: ref Capparelli et al. (2007); cited from earlier work. An excerpt:
(§2) The cytotoxicity and hemolytic activity of PinA has been addressed in this study using human epithelial INT 407 cells and SRBCs. INT 407 cells were chosen for this study as these cells grow rapidly and easy to maintain in culture media. INT 407 cells have been used extensively in C. jejuni research for several decades ([Negretti et al., 2019]). […] The first report on the cytotoxicity of puroindolines was from [Jing et al. (2003)], where th ...

The test system of a further data set is blood. As to conditions: blood hemolysis assay; ref Jing et al. (2003); cited from earlier work.
Excerpt: as §2

Data set [4] deals with sheep red blood cells (SRBCs). Description: Hemolysis assay. It is filed as cell-based. As to conditions: ~10^8 cells/mL, 60 min, 37°C, absorbance 540 nm; 100% = 1% Triton X-100. The protocol:
The potential toxicity of the peptides was determined using a hemolysis assay. Briefly, SRBCs (Hardy Diagnostics, Santa Monica, CA, United States) were washed three times with 1× PBS. Aliquots containing approximately 10^8 cells/mL were incubated with different concentrations of the peptides for 60 min at 37°C in a 96-well tray. The plates were then centrifuged, and the absorbance of each supernatant was measured at 540 nm. Zero hemolysis (blank) and 100% hemolysis were determined in phosphate buffer and 1% Triton X-100, respectively.

In the case of `CSCC[C@H](NC(=O)[C@@H](N)[C@@H](C)O)C(=O)N[C@@H](CCCCN)C(=O)N[C@@H](CC(=O)O)C(=O)N[C@@H](Cc1ccccc1)C(=O)N1CCC[C@H]1C(=O)N[C@H](C(=O)N[C@H](C(=O)N[C@@H](Cc1c[nH]c2ccccc12)C(=O)N1CCC[C@H]1C(=O)N[C@H](C(=O)N[C@@H](CCCCN)C(=O)N[C@@H](Cc1c[nH]c2ccccc12)C(=O)N[C@@H](Cc1c[nH]c2ccccc12)C(=O)N[C@@H](CCCCN)C(=O)NCC(=O)NCC(=O)O)[C@@H](C)O)[C@@H](C)O)C(C)C` [PinB] (H-TMKDFPVTWPTKWWKGG-OH), the “Concentration showing cytotoxicity (LDH release)” value with INT 407 cells [1] was above 512 µg/mL. Also, the “Solubility (in words)” value in data set [2] is listed as “soluble in DMSO, an organic solvent, but not in water”. Moreover, the “Concentration reducing cell viability (MTT, OD570)” value in the data set on INT 407 cells [3] is above 512 µg/mL. Moreover, the “Concentration up to which no hemolytic activity was displayed” value in the data set on red blood cells is 50 µg/mL. The “Concentration up to which no hemolytic activity was identified” value in the data set with blood is 1000 µg/mL. In addition, the “Concentration showing hemolysis of SRBCs” value in data set [4] was at least 256 µg/mL.
